{"source": "patent US12583895B2", "about": "“Polypeptides for restoring endothelial function and methods of use thereof” (Vanderbilt University, priority 2019, dated 2026)", "tested_on": "rat aorta", "experiment": "Carbachol-induced relaxation of anisomycin-treated rat aorta", "assay_type": "cell-based", "details": "NiPp 500 μM 30 min pretreatment, then anisomycin 200 μM 1 h", "experimental": "RA rings were suspended in a muscle bath and incubated with either buffer alone (Ctrl), Aniso (200 μM) for 1 h, or NiPp (500 μM) for 30 min followed by Aniso (200 μM) for 1 h. […] Proteins were extracted […] immunoblotted to examine p38MAPK phosphorylation. Quantification of relative phosphorylation to total p38MAPK level is shown. n=10, *p<0.05 in one-way ANOVA with Tukey post-test. NiPp restores endothelial dysfunction and reduced p38 MAPK phosphorylation induced by anisomycin in RA.\nRA rings were suspended in a muscle bath and incubated with either buffer alone (Ctrl), Aniso (200 μM) for 1 h, or NiPp (500 μM) for 30 min followed by Aniso (200 μM) for 1 h. […] The force generated was determined and was adjusted to the weight and length of the tissue. Representative tracings from 1 out of 6 different rats are shown. […] Proteins were extracted and phosphorylation of p38 MAPK was determined by Western blot analysis. […] Data are expressed as mean±SD. […]\nThis produced the maximal force tension relationship as previously described. […] Contractile responses were defined by stress, calculated using force generated by tissues as follows: stress (×10^5 N/m^2)=force (g)×0.0987/area, where area=wet weight (mg)/at maximal length (mm)]/1.055.\nRelaxation was calculated as percent change in stress compared to the maximal PE-induced contraction (set as 100%). […]", "note": "“Also recorded” adds a separate entry of the source. Non-standard residues stand in square brackets, D forms with d. No end group written: not given here. pS = N[C@@H](COP(=O)(O)O)C(=O)O"}
{"substance": "YARAAARQARASPAARRA(pS)AILPG (YARAAARQARASPAARRA[pS]AILPG) [NiPp, Cell-permeant phosphopeptide mimetic of Niban: transduction domain … conjugated to the region surrounding serine 602 of Niban]", "values": [{"measurement": "endothelial-dependent relaxation (5×10^−7 M CCH) in anisomycin-treated rat aorta", "result": "improved; also recorded: prevented; also recorded: restores"}]}
